Measured values as given in PubChem BioAssay (NCI).
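Exposure lasted 48 hours, with cells grown in 96-well plates and compounds tested at five concentrations. Here, GI50 denotes the concentration required for 50% inhibition of growth. TGI denotes the concentration required for complete inhibition of growth.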

Tests used:
Assay in all cases: NCI tumour cell line growth inhibition, 48 h
HT29 colon = test system: HT29 colon
SR leukemia = test system: SR leukemia
OVCAR-4 ovarian = test system: OVCAR-4 ovarian
TK-10 renal = test system: TK-10 renal
UACC-62 melanoma = test system: UACC-62 melanoma
LXFL 529 NSCLC = test system: LXFL 529 NSCLC
NCI-H460 lung = test system: NCI-H460 lung
MDA-MB-231 breast = test system: MDA-MB-231 breast
OVCAR-5 ovarian = test system: OVCAR-5 ovarian
M19-MEL melanoma = test system: M19-MEL melanoma

Row | SMILES | TGI (HT29 colon) [µM] | TGI (SR leukemia) [µM] | TGI (OVCAR-4 ovarian) [µM] | TGI (TK-10 renal) [µM] | TGI (UACC-62 melanoma) [µM] | TGI (LXFL 529 NSCLC) [µM] | TGI (NCI-H460 lung) [µM] | TGI (MDA-MB-231 breast) [µM] | TGI (OVCAR-5 ovarian) [µM] | TGI (M19-MEL melanoma) [µM] | GI50 (UACC-62 melanoma) [µM] | GI50 (MDA-MB-231 breast) [µM]
1 | CC(CCC=O)CCOCc1ccccc1 (configuration not stated) | > 100 | > 80.7 | > 100 | > 100 | > 100 | > 100 | > 100 | > 100 | > 100 | > 100 | – | –
2 | C=COCCCOc1ccccc1 | > 100 | > 100 | > 100 | > 100 | > 100 | > 100 | > 100 | > 100 | > 100 | > 100 | > 100 | > 100
3 | CNC(=O)N(C)N=NCCCl | > 100 | > 100 | > 100 | > 100 | > 100 | > 100 | > 100 | > 100 | > 100 | > 100 | – | –
4 | C=C(c1nc2ccc(Cl)cc2[nH]c1=O)C(O)c1ccc(C(O)C(=O)c2nc3ccc(Cl)cc3[nH]c2=O)cc1 (configuration not stated) | > 100 | > 100 | > 100 | > 100 | > 100 | > 100 | > 100 | > 100 | > 100 | > 100 | – | –
